In ChEMBL document CHEMBL2150984, “Synthesis of fluorescent ristocetin aglycon derivatives with remarkable antibacterial and antiviral activities” (Eur J Med Chem, 2012):
≈ marks a conversion by molar mass, not a printed value.

How the values were obtained:
Bacillus subtilis = assay: Antibacterial activity against Bacillus subtilis ATCC 6633 by broth microdilution method; format: functional
[1] = tested on: Staphylococcus epidermidis; assay: Antibacterial activity against biofilm forming Staphylococcus epidermidis ATCC 35984 by broth microdilution method; format: functional
Staphylococcus aureus [2] = assay: Antibacterial activity against methicillin-resistant Staphylococcus aureus ATCC 33591 by broth microdilution method; format: functional
Staphylococcus aureus [3] = assay: Antibacterial activity against methicillin-sensitive Staphylococcus aureus ATCC 29213 by broth microdilution method; format: functional
Enterococcus faecalis [4] = assay: Antibacterial activity against Enterococcus faecalis ATCC 15376 expressing vanA gene by broth microdilution method; format: functional
Enterococcus faecalis [5] = assay: Antibacterial activity against Enterococcus faecalis ATCC 29212 by broth microdilution method; format: functional
[6] = tested on: Staphylococcus epidermidis; assay: Antibacterial activity against Staphylococcus epidermidis expressing mecA gene by broth microdilution method; format: functional
Enterococcus faecalis [7] = assay: Antibacterial activity against Enterococcus faecalis ATCC 51299 expressing vanB gene by broth microdilution method; format: functional
Influenza A virus = assay: Antiviral activity against Influenza A/PR/8/34 infected in MDCK cells assessed as inhibition of virus-induced cytopathic effect measured on day 3 post infection by MTS assay; format: functional, organism-based; conditions: A/Puerto Rico/8/1934(H1N1), 72 h
H3N2 subtype = assay: Antiviral activity against Influenza A/HK/7/87 infected in MDCK cells assessed as inhibition of virus-induced cytopathic effect measured on day 3 post infection by MTS assay; format: functional, organism-based; conditions: A/Hong Kong/7/1987(H3N2), 72 h
Influenza B virus = assay: Antiviral activity against Influenza B/HK/5/72 infected in MDCK cells assessed as inhibition of virus-induced cytopathic effect measured on day 3 post infection by MTS assay; format: functional, cell-based; conditions: B/Hong Kong/05/1972, MDCK, 72 h
[8] = Cytotoxicity against MDCK cells assessed as minimum concentration required to cause microscopically detectable alteration measured on day 3 post infection by MTS assay; format: cell-based, Canis lupus familiaris; conditions: dog

SMILES	MIC (Bacillus subtilis) [µg/mL]	MIC [1] [µg/mL]	MIC (Staphylococcus aureus [2]) [µg/mL]	MIC (Staphylococcus aureus [3]) [µg/mL]	MIC (Enterococcus faecalis [4]) [µg/mL]	MIC (Enterococcus faecalis [5]) [µg/mL]	MIC [6] [µg/mL]	MIC (Enterococcus faecalis [7]) [µg/mL]	EC50 (Influenza A virus) [nM]	EC50 (H3N2 subtype) [nM]	EC50 (Influenza B virus) [nM]	MCC at 3 days [8] [µM]
COC(=O)[C@H]1NC(=O)[C@H]2NC(=O)[C@H](NC(=O)[C@@H]3NC(=O)[C@H]4NC(=O)[C@H](NC(=O)[C@H](n5cc6ccccc6c5S[C@@H]5O[C@H](COC(C)=O)[C@@H](OC(C)=O)[C@H](OC(C)=O)[C@H]5OC(C)=O)c5ccc(O)c(c5)Oc5cc4cc(O)c5C)[C@H](O)c4ccc(cc4)Oc4cc3cc(c4O)Oc3ccc(cc3)[C@H]2O)c2ccc(O)c(c2)-c2c(O)cc(O)cc21	8 (≈ 4.89 µM)	1 (≈ 0.611 µM)	1 (≈ 0.611 µM)	2 (≈ 1.22 µM)	8 (≈ 4.89 µM)	2 (≈ 1.22 µM)	4 (≈ 2.44 µM)	8 (≈ 4.89 µM)	160	72	> 100000	≥ 4
COC(=O)[C@H]1NC(=O)[C@H]2NC(=O)[C@H](NC(=O)[C@@H]3NC(=O)[C@H]4NC(=O)[C@H](NC(=O)[C@H](n5cc6ccccc6c5S[C@@H]5O[C@H](CO)[C@@H](O)[C@H](O)[C@H]5O)c5ccc(O)c(c5)Oc5cc4cc(O)c5C)[C@H](O)c4ccc(cc4)Oc4cc3cc(c4O)Oc3ccc(cc3)[C@H]2O)c2ccc(O)c(c2)-c2c(O)cc(O)cc21	2 (≈ 1.36 µM)	4 (≈ 2.72 µM)	1 (≈ 0.681 µM)	1 (≈ 0.681 µM)	1 (≈ 0.681 µM)	1 (≈ 0.681 µM)	1 (≈ 0.681 µM)	2 (≈ 1.36 µM)	270	2300	> 100000	20
COC(=O)[C@H]1NC(=O)[C@H]2NC(=O)[C@H](NC(=O)[C@@H]3NC(=O)[C@H]4NC(=O)[C@H](NC(=O)[C@H](n5cc6ccccc6c5S[C@@H]5O[C@H](COC(C)=O)[C@@H](OC(C)=O)[C@H](OC(C)=O)[C@H]5NC(C)=O)c5ccc(O)c(c5)Oc5cc4cc(O)c5C)[C@H](O)c4ccc(cc4)Oc4cc3cc(c4O)Oc3ccc(cc3)[C@H]2O)c2ccc(O)c(c2)-c2c(O)cc(O)cc21	8 (≈ 4.89 µM)	4 (≈ 2.45 µM)	4 (≈ 2.45 µM)	4 (≈ 2.45 µM)	4 (≈ 2.45 µM)	4 (≈ 2.45 µM)	4 (≈ 2.45 µM)	4 (≈ 2.45 µM)	1800	1800	> 100000	20
COC(=O)[C@H]1NC(=O)[C@H]2NC(=O)[C@H](NC(=O)[C@@H]3NC(=O)[C@H]4NC(=O)[C@H](NC(=O)[C@H](n5cc6ccccc6c5Sc5ccccc5)c5ccc(O)c(c5)Oc5cc4cc(O)c5C)[C@H](O)c4ccc(cc4)Oc4cc3cc(c4O)Oc3ccc(cc3)[C@H]2O)c2ccc(O)c(c2)-c2c(O)cc(O)cc21	2 (≈ 1.45 µM)	0.5 (≈ 0.362 µM)	1 (≈ 0.723 µM)	1 (≈ 0.723 µM)	4 (≈ 2.89 µM)	2 (≈ 1.45 µM)	1 (≈ 0.723 µM)	1 (≈ 0.723 µM)	670	680	1400	6.4
COC(=O)[C@H]1NC(=O)[C@H]2NC(=O)[C@H](NC(=O)[C@@H]3NC(=O)[C@H]4NC(=O)[C@H](NC(=O)[C@H](n5cc6ccccc6c5Sc5nc6ccccc6s5)c5ccc(O)c(c5)Oc5cc4cc(O)c5C)[C@H](O)c4ccc(cc4)Oc4cc3cc(c4O)Oc3ccc(cc3)[C@H]2O)c2ccc(O)c(c2)-c2c(O)cc(O)cc21	2 (≈ 1.39 µM)	2 (≈ 1.39 µM)	0.5 (≈ 0.347 µM)	1 (≈ 0.695 µM)	1 (≈ 0.695 µM)	0.5 (≈ 0.347 µM)	1 (≈ 0.695 µM)	2 (≈ 1.39 µM)	1400	4000	8900	20
COC(=O)[C@H]1NC(=O)[C@H]2NC(=O)[C@H](NC(=O)[C@@H]3NC(=O)[C@H]4NC(=O)[C@H](NC(=O)[C@H](n5cc6ccccc6c5Sc5ncccn5)c5ccc(O)c(c5)Oc5cc4cc(O)c5C)[C@H](O)c4ccc(cc4)Oc4cc3cc(c4O)Oc3ccc(cc3)[C@H]2O)c2ccc(O)c(c2)-c2c(O)cc(O)cc21	0.5 (≈ 0.361 µM)	2 (≈ 1.44 µM)	1 (≈ 0.722 µM)	1 (≈ 0.722 µM)	0.5 (≈ 0.361 µM)	0.5 (≈ 0.361 µM)	0.5 (≈ 0.361 µM)	0.5 (≈ 0.361 µM)	300	1800	> 100000	20
COC(=O)[C@H]1NC(=O)[C@H]2NC(=O)[C@H](NC(=O)[C@@H]3NC(=O)[C@H]4NC(=O)[C@H](NC(=O)[C@H](n5cc6cc7ccccc7cc6c5Sc5ccccc5)c5ccc(O)c(c5)Oc5cc4cc(O)c5C)[C@H](O)c4ccc(cc4)Oc4cc3cc(c4O)Oc3ccc(cc3)[C@H]2O)c2ccc(O)c(c2)-c2c(O)cc(O)cc21	0.5 (≈ 0.349 µM)	1 (≈ 0.698 µM)	0.5 (≈ 0.349 µM)	0.5 (≈ 0.349 µM)	0.5 (≈ 0.349 µM)	0.5 (≈ 0.349 µM)	1 (≈ 0.698 µM)	0.5 (≈ 0.349 µM)	> 100000	> 100000	> 100000	20
COC(=O)[C@H]1NC(=O)[C@H]2NC(=O)[C@H](NC(=O)[C@@H]3NC(=O)[C@H]4NC(=O)[C@H](NC(=O)[C@H](n5cc6cc7ccccc7cc6c5Sc5ncccn5)c5ccc(O)c(c5)Oc5cc4cc(O)c5C)[C@H](O)c4ccc(cc4)Oc4cc3cc(c4O)Oc3ccc(cc3)[C@H]2O)c2ccc(O)c(c2)-c2c(O)cc(O)cc21	2 (≈ 1.39 µM)	4 (≈ 2.79 µM)	2 (≈ 1.39 µM)	2 (≈ 1.39 µM)	2 (≈ 1.39 µM)	2 (≈ 1.39 µM)	2 (≈ 1.39 µM)	2 (≈ 1.39 µM)	80	360	> 100000	≥ 0.8
COC(=O)[C@H]1NC(=O)[C@H]2NC(=O)[C@H](NC(=O)[C@@H]3NC(=O)[C@H]4NC(=O)[C@H](NC(=O)[C@H](N)c5ccc(O)c(c5)Oc5cc4cc(O)c5C)[C@H](O)c4ccc(cc4)Oc4cc3cc(c4O)Oc3ccc(cc3)[C@H]2O)c2ccc(O)c(c2)-c2c(O)cc(O)cc21 [AGLYCORISTOCETIN]									2300	6800	> 100000	> 100
NC12CC3CC(CC(C3)C1)C2 [AMANTADINE]									7600	2300	> 500000	> 500
NC(=O)c1ncn([C@@H]2O[C@H](CO)[C@@H](O)[C@H]2O)n1 [RIBAVIRIN]									6800	8900		≥ 20
Cc1c(O)cc2cc1Oc1cc(ccc1O)[C@@H](N)C(=O)N[C@H]1C(=O)N[C@@H]2C(=O)N[C@H]2C(=O)N[C@H]3C(=O)N[C@H](C(=O)N[C@@H](C(=O)O)c4cc(O)cc(O[C@H]5O[C@H](CO)[C@@H](O)[C@H](O)[C@@H]5O)c4-c4cc3ccc4O)[C@H](O[C@H]3C[C@@H](N)[C@@H](O)[C@H](C)O3)c3ccc(cc3)Oc3cc2cc(c3O[C@H]2O[C@@H](CO[C@H]3O[C@H](C)[C@@H](O)[C@H](O)[C@@H]3O)[C@H](O)[C@@H](O)[C@@H]2O[C@H]2O[C@H](CO)[C@@H](O)[C@H](O)[C@@H]2O[C@H]2O[C@H](CO)[C@@H](O)[C@@H]2O)Oc2ccc(cc2)[C@H]1O [RISTOCETIN]	16 (≈ 7.79 µM)	2 (≈ 0.974 µM)	32 (≈ 15.6 µM)	128 (≈ 62.3 µM)	16 (≈ 7.79 µM)	4 (≈ 1.95 µM)	128 (≈ 62.3 µM)	256 (≈ 125 µM)				
CN[C@H](CC(C)C)C(=O)N[C@H]1C(=O)N[C@@H](CC(N)=O)C(=O)N[C@H]2C(=O)N[C@H]3C(=O)N[C@H](C(=O)N[C@H](C(=O)O)c4cc(O)cc(O)c4-c4cc3ccc4O)[C@H](O)c3ccc(c(Cl)c3)Oc3cc2cc(c3O[C@@H]2O[C@H](CO)[C@@H](O)[C@H](O)[C@H]2O[C@H]2C[C@](C)(N)[C@H](O)[C@H](C)O2)Oc2ccc(cc2Cl)[C@H]1O [VANCOMYCIN]	0.5 (≈ 0.345 µM)				256 (≈ 177 µM)	1 (≈ 0.69 µM)		128 (≈ 88.3 µM)				
CC(=O)N[C@H]1[C@H]([C@H](O)[C@H](O)CO)OC(C(=O)O)=C[C@@H]1NC(=N)N [ZANAMIVIR]									300	1800	34000	> 100
